In ChEMBL document CHEMBL1122447, “2-Acetylpyridine thiosemicarbazones. 5. 1-[1-(2-Pyridyl)ethyl]-3-thiosemicarbazides as potential antimalarial agents” (1983):

Key:
Plasmodium berghei [1] = assay: Antimalarial activity against Plasmodium berghei infected mice (Mus musculus) at 640 mg/kg; toxic in 5 of 5; format: functional, organism-based; design: dose 640 mg/kg
Plasmodium berghei [2] = assay: Antimalarial activity against Plasmodium berghei infected mice (Mus musculus) at 320 mg/kg; toxic in 1 of 5; format: functional, organism-based; design: dose 320 mg/kg
Plasmodium berghei [3] = assay: Increased mean survival time in drug-sensitive Plasmodium berghei infected mice (Mus musculus) at 160 mg/kg; cured 5 of 5; format: functional
Plasmodium berghei [4] = assay: Increased mean survival time in drug-sensitive Plasmodium berghei infected mice (Mus musculus) at 20 mg/kg dose; format: functional
Plasmodium berghei [5] = assay: Increased mean survival time in drug-sensitive Plasmodium berghei infected mice (Mus musculus) at 80 mg/kg; cures 3 of 5; format: functional, organism-based; design: dose 80 mg/kg
Plasmodium berghei [6] = assay: Increased mean survival time in drug-sensitive Plasmodium berghei infected mice (Mus musculus) at 40 mg/kg; cured 1 of 5; format: functional, organism-based; design: dose 40 mg/kg
Plasmodium berghei [7] = assay: Increased mean survival time in drug-sensitive Plasmodium berghei infected mice (Mus musculus) at 320 mg/kg; cured 2 of 5; format: functional, organism-based; design: dose 320 mg/kg

Compound: CC(N/N=C(\S)N1CCN(c2ccccn2)CC1)c1ccccn1 (configuration not stated)
- Survival time (Plasmodium berghei [1]): Toxic in 5 of 5 mice
- Survival time (Plasmodium berghei [2]): Toxic in 1 of 5 mice
- Survival time (Plasmodium berghei [3]): 5 days
- Survival time (Plasmodium berghei [4]): 0.4 days
- Survival time (Plasmodium berghei [5]): Cured 3 of 5 mice
- Survival time (Plasmodium berghei [6]): Cured 1 of 5 mice
- Survival time (Plasmodium berghei [7]): Cured 2 of 5 mice
